Data as given in patent US10195243B2, “Process of making wine from a whole grape bunch, process of making pomace juice and powder, and method of producing beverages on the basis of juice and powder from a grape bunch” (priority 2014, dated 2019).

Tested on: Molt-4-luc leukemia
Conditions: positive control group
Experimental: The objective was to evaluate the anti-tumor efficacy of different compounds in leukemia model in Balb/c nude mice.
Female Balb/c nude mice, with a body weight of approximately 20 grams, were obtained from an approved vendor (Shanghai BK Laboratory Animal Co., LTD., Shanghai, China). Upon arrival, animals were assessed as to their general health by a member of a veterinary staff or authorized personnel. Animals were acclimated for at least three days (upon arrival at the experiment room) before being used for the study. Animals were housed in groups during acclimation and individually housed during in-life. […] Temperature and relative humidity were monitored daily. […]
The tumor cells were routinely subcultured twice weekly. The cells growing in an exponential growth phase were harvested and counted for tumor inoculation. […]
Mice were randomly assigned to 16 groups (vehicle control, positive control, and 14 testing article groups) based on the body weight. […] Whole body and metastatic bioluminescence were measured and recorded.
The inoculated mice were weighted and intraperitoneally injected luciferin at 150 mg/kg. […] The bioluminescence of the whole animal body, including primary and metastatic tumors, was measured and images are recorded.
Bioluminescence (BL) of the whole animal body, including primary and metastatic tumors, was measured and images were recorded using a fixed intensity scale. […]

With O=P1(N(CCCl)CCCl)NCCCO1 (centres unmarked) [Cyclophosphamide] the mice died (day 111 after cell injection, the mouse showed bioluminescence signal) was “one” and the “outcome until day 150” value was “died”.
